Data as given in patent publication US20240360114A1 (SIRONAX LTD., priority 2021, published 2024).

Test system: HT-1080 cells
Assay: HT-1080 cell viability assay (ferroptosis induced by RSL3, Cell Titer-Glo)
Assay type: cell-based
Settings: Homo sapiens, HT-1080, 20 h, ferroptosis inducer RSL3, 20 hours, ferroptosis inhibitory activity, Table 2
Procedure, shortened: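 Cells seeded overnight, then co-treated with RSL3 and compound (3-fold, 10-point dilution, top 1.1 μM) for 20 hours. Viability by CellTiter-Glo luminescence, normalized to untreated controls; EC50 from sigmoidal non-linear regression.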

| Compound | EC50 |
| --- | --- |
| Cc1nc(N2C[C@@H](C)N(CC(F)(F)F)[C@@H](C)C2)ccc1NC1C2CC3CC1CC(N)(C3)C2 (stereo partly drawn) [Compound 540, N4-(6-((3R,5S)-3,5-dimethyl-4-(2,2,2-trifluoroethyl)piperazin-1-yl)-2-methylpyridin-3-yl)adamantane-1,4-diamine] | 0.1 to 100 nM |
| Cc1nc(N2C[C@@H](C)N(CC(F)(F)F)[C@@H](C)C2)ccc1NC1CCC(N)C1 (stereo partly drawn) [Compound 541, N1-(6-((3R,5S)-3,5-dimethyl-4-(2,2,2-trifluoroethyl)piperazin-1-yl)-2-methylpyridin-3-yl)cyclopentane-1,3-diamine] | 0.1 to 100 nM |
| Cc1nc(N2C[C@@H](C)N(CC(F)(F)F)[C@@H](C)C2)ccc1NC1CCC(N)CC1 (stereo partly shown) [Compound 542] | 0.1 to 100 nM |
| Cc1nc(N2C[C@@H](C)N(CC(F)(F)F)[C@@H](C)C2)ccc1NC[C@H]1CC[C@H](N)CC1 [Compound 543, N-(((1r,4R)-4-aminocyclohexyl)methyl)-6-((3R,5S)-3,5-dimethyl-4-(2,2,2-trifluoroethyl)piperazin-1-yl)-2-methylpyridin-3-amine] | 0.1 to 100 nM |
| CCc1nc(N2C[C@@H](C)O[C@@H](C)C2)ccc1NC[C@H]1CC[C@H](N)CC1 [Compound 544, N-(((1r,4R)-4-aminocyclohexyl)methyl)-6-((2S,6R)-2,6-dimethylmorpholino)-2-ethylpyridin-3-amine] | 0.1 to 100 nM |
| CCc1nc(N2C[C@@H](C)O[C@@H](C)C2)ccc1NC1CC2(CC(N)C2)C1 (stereo partly drawn) [Compound 545, N^2-(6-((2S,6R)-2,6-dimethylmorpholino)-2-ethylpyridin-3-yl)spiro[3.3]heptane-2,6-diamine] | 0.1 to 100 nM |
| CC[C@@H]1CN(c2ccc(NC3CC4(CC(N)C4)C3)c(C)n2)C[C@H](C)O1 (stereo partly drawn) [Compound 546, N2-(6-((2R,6S)-2-ethyl-6-methylmorpholino)-2-methylpyridin-3-yl)spiro[3.3]heptane-2,6-diamine] | 0.1 to 100 nM |
| CC[C@@H]1CN(c2ccc(NC3CC4(CC(N)C4)C3)c(C)n2)C[C@@H](C)O1 (stereo partly drawn) [Compound 547, N^2-(6-((2R,6R)-2-ethyl-6-methylmorpholino)-2-methylpyridin-3-yl)spiro[3.3]heptane-2,6-diamine] | 0.1 to 100 nM |
| CC[C@@H]1CN(c2ccc(NC[C@H]3CC[C@H](N)CC3)c(C)n2)C[C@@H](CC)O1 [Compound 548, N-(((1r,4R)-4-aminocyclohexyl)methyl)-6-((2R,6R)-2,6-diethylmorpholino)-2-methylpyridin-3-amine] | 0.1 to 100 nM |
| CC[C@@H]1CN(c2ccc(NC3CC4(CC(N)C4)C3)c(C)n2)C[C@H](CC)O1 (stereo partly shown) [Compound 549] | 0.1 to 100 nM |
| CC[C@@H]1CN(c2ccc(NC3CC4(CC(N)C4)C3)c(C)n2)C[C@@H](CC)O1 (stereo partly shown) [Compound 550] | 0.1 to 100 nM |
| CC[C@@H]1CN(c2ccc(NC3CCC(N)CC3)c(C)n2)C[C@H](C)O1 (stereo partly drawn) [Compound 551, N1-(6-((2R,6S)-2-ethyl-6-methylmorpholino)-2-methylpyridin-3-yl)cyclohexane-1,4-diamine] | 100 to 1000 nM |
| CC[C@@H]1CN(c2ccc(NC3CCC(N)CC3)c(C)n2)C[C@@H](CC)O1 (stereo partly drawn) [Compound 552, N1-(6-((2R,6R)-2,6-diethylmorpholino)-2-methylpyridin-3-yl)cyclohexane-1,4-diamine] | 0.1 to 100 nM |
| Cc1nc(N2CC(C)OC(C)C2)ccc1NC1CC2CCC1CC2N (stereo not shown) [Compound 553, N2-(6-(2,6-dimethylmorpholino)-2-methylpyridin-3-yl)bicyclo[2.2.2]octane-2,5-diamine] | 100 to 1000 nM |
| Cc1nc(N2CC(C)N(C(=O)C(F)(F)F)C(C)C2)ccc1NC1CC2(CC(N)C2)C1 (stereo not shown) [Compound 554, 1-(4-(5-((6-aminospiro[3.3]heptan-2-yl)amino)-6-methylpyridin-2-yl)-2,6-dimethylpiperazin-1-yl)-2,2,2-trifluoroethan-1-one] | 0.1 to 100 nM |
| CC(=O)N1C(C)CN(c2ccc(NC3CC4(CC(N)C4)C3)c(C)n2)CC1C (stereo not shown) [Compound 555, 1-(4-(5-((6-aminospiro[3.3]heptan-2-yl)amino)-6-methylpyridin-2-yl)-2,6-dimethylpiperazin-1-yl)ethan-1-one] | 0.1 to 100 nM |
